Values after ≈ are worked out from the molar mass of the structure shown. Read-outs that look alike come from different tables or passages of the source. Non-standard residues stand in square brackets, D forms with d. Residues, ends and D or L forms follow the SMILES beside them. Ac6c = NC1(C(=O)O)CCCCC1

The source of these data is paper PMC10800876, “Evaluation of proline-rich antimicrobial peptides as potential lead structures for novel antimycotics against Cryptococcus neoformans” (Frontiers in Microbiology, 2024).

One data set has as its system C. neoformans. Conditions: cited from earlier work. An excerpt:
Moreover, these drugs have tremendous side effects due to their high toxicity, particularly kidney damage. In general, the dev ...

A further data set deals with in vitro translation. The following applies: ref Seefeldt et al., 2016; cited from earlier work. As for the experimental part: The putative intracellular mode of action is a very significant finding, supported by CLSM images showing fluorescence in the cytoplasmic region after incubation of C. neoformans with Cf-labeled PrAMPs (Figure 4; Supplementary Figure S3). At this point, we can only speculate about potential targets, such as the ribosomes at the endoplasmic reticulum, which is the primary target of PrAMPs in bacteria, i.e., the 70S ribosome ([Krizsan et al., 2014], [2015a],[b]; [Seefeldt et al., 2015]; [Graf et al., 2017]). […] However, ...

Data set [1] concerns C. neoformans strains 1841, H99, and KN99α. In words: Broth microdilution assay (MIC). It counts as cell-based, Cryptococcus neoformans. The following applies: strains 1841, H99, and KN99α, 24 h. In general terms: In broth dilution the organism is exposed to a series of concentrations in liquid medium.
In data set [2] the test system is C. neoformans 1841. Put plainly: Antifungal activity assay (CFU on SAB agar). Conditions: treatment 3 h, 30 °C, mean ± SD, n = 4; for cell count C. neoformans 1841, 24 h: CFU counted after 24 h; for cell count C. neoformans 1841, 48 h: CFU counted after 48 h. It is filed as cell-based, Cryptococcus neoformans.
In another data set the test system is C. neoformans H99. Put plainly: Antifungal activity assay (CFU on SAB agar). It counts as cell-based, Cryptococcus neoformans. Conditions: treatment 3 h, 30 °C, mean ± SD, n = 4; for cell count C. neoformans H99, 24 h: CFU counted after 24 h; for cell count C. neoformans H99, 48 h: CFU counted after 48 h.
The next data set relates to C. neoformans KN99α. Put plainly: Antifungal activity assay (CFU on SAB agar). Conditions: treatment 3 h, 30 °C, mean ± SD, n = 4; for cell count C. neoformans KN99α, 24 h: CFU counted after 24 h; for cell count C. neoformans KN99α, 48 h: CFU counted after 48 h. It counts as cell-based, Cryptococcus neoformans.
Data set [3] relates to C. neoformans 1841. In words: Time-kill assay. The following applies: 2.5 μmol/L, 30°C, triplicates. It is filed as cell-based, Cryptococcus neoformans. As for the experimental part: The kinetic effects of the antifungal activity were determined by diluting overnight cultures to 5 × 10^4 CFU/mL with 50% SAB in phosphate buffer. Aqueous peptide solutions (20 μL) were added to the cell suspension (80 μL) to give a final peptide concentration of 2.5 μmol/L. Samples were incubated at 30°C on an orbital shaker (750 rpm, Titramax 1,000, Heidolph Instruments GmbH & Co. KG) for 24 h. Before incubation (0 min) and after 45 min, 90 min, 3 h, 6 h, and 24 h incubation, aliquots (10 μL) of samples were taken and diluted with phosphate buffer (10 mmol/L, pH 7.5) to observe countable cell colonies. Aliquots (100 μL) of the diluted cell suspensions were plated on SAB agar plates. Plates were incubated at 30°C and colonies were counted after 24 h.

Data set [4] deals with C. neoformans strains 1841, H99, and KN99α. In words: Antifungal activity assay (CFU). It counts as cell-based, Cryptococcus neoformans. Conditions: peptide concentrations ≥2.5 μmol/L, no colonies visible even after 48 h.
For data set [5], the system named is HepG2 and HEK293 cell lines. In words: Cytotoxicity (MTT), for both cell lines. It is filed as cell-based, human.
Experimental: Human embryonic kidney (HEK293) and human hepatoma (HepG2) cells were cultured in Dulbecco’s modified Eagle’s/Ham’s F-12 medium (DMEM/F-12) containing 10% (v/v) fetal bovine serum and 1% (v/v) penicillin/streptomycin. Cells (20,000 in 200 μL per well) were seeded into a 96-well plate (polystyrene F-bottom, Greiner Bio-One GmbH) and incubated for 24 h (37°C, 5% CO2). Cells were washed with PBS (100 μL) and peptide solutions (0.6 g/L in DMEM/F-12) were added. The positive control was a dilution series from 12 to 1.5% (v/v) DMSO and the negative control was 12% (v/v) PBS. After incubation (37°C, 24 h, 5% CO2), the supernatant was discarded, fresh medium (90 μL/well) and MTT (10 μL/well, 5 g/L in PBS) were added, and the plate was incubated for 4 h (37°C, 5% CO2). A solution (100 μL) of sodium dodecyl sulfate (10% (v/v)) in hydrochloric acid (10 mmol/L) was added and the plate was incubated again for 24 h (37°C, 5% CO2). Absorbance was recorded at 570 nm relative to the reference at 650 nm ([…] ™ microplate reader). All samples were corrected for the background absorbance of the medium. Relative cell viability was calculated as the ratio of absorbances recorded for treated and untreated cells ([Kolano et al., 2021]; [Brakel et al., 2022a],[b]).
The test system of data set [6] is C. neoformans 1841 (serotype D).
Data set [7] concerns C. neoformans H99 (serotype A).
Data set [8] concerns C. neoformans KN99α (serotype A, mating type MATα).

As for “Bac7 (1-35): mammalian PrAMP fragment, literature (RRIRPRPPRLPRPRPRPLPFPRPGPRPIPRPLPFP; Bactenecin 7; UniProt P19661 131-165, looked up, fragment)”, the “MIC against C. neoformans” value in the data set on C. neoformans (ref Benincasa et al., 2004, Conti et al., 2013) was at least 4 µM. Besides, in the data set on in vitro translation, the “IC50 in eukaryotic in vitro translation system relative to the E. coli system” value is listed as 2.5 fold.

For `N=C(N)NCCCCC(=O)Nc1cc(C(F)(F)F)cc(NC(=O)c2cc(C(=O)Nc3cc(C(F)(F)F)cc(NC(=O)CCCCNC(=N)N)c3O[C@@H]3CCNC3)ncn2)c1O[C@@H]1CCNC1` [brilacidin], the “MIC against C. neoformans” value with C. neoformans (ref Dos Reis et al., 2023) is 2.5 µM (≈ 2.34 µg/mL).

Usually MIC stands for the smallest concentration in the dilution series that meets the test's criterion for growth inhibition. Read a high MIC as a need for much substance. On to `CC(C)C[C@H](NC(=O)[C@H](Cc1ccc(O)cc1)NC(=O)[C@@H]1CCCN1C(=O)[C@H](CCCNC(=N)N)NC(=O)[C@@H]1CCCN1C(=O)[C@H](CCCCN)NC(=O)[C@H](CCCCN)NC(=O)[C@@H]1CCCN1C(=O)[C@H](CCCNC(=N)N)NC(=O)C1(N)CCCCC1)C(=O)N1CCC[C@H]1C(=O)N[C@@H](CCCNC(=N)N)C(=O)N1CCC[C@H]1C(=O)N[C@@H](CCCNC(=N)N)C(=O)N1CCC[C@H]1C(=O)N1CCC[C@H]1C(=O)N[C@@H](CCCNC(=N)N)C(=O)N1CCC[C@H]1C(=O)N[C@H](C(=O)N[C@@H](CCCNC(=N)N)C(N)=O)C(C)C` [Chex1Arg20 D4K] (H-[Ac6c]RPKKPRPYLPRPRPPRPVR-NH2; N-terminus assumed), for which, in data set [1], the “MIC” value was 1.6 µM (≈ 3.98 µg/mL). Besides, the “cell count C. neoformans 1841, 24 h” value in the data set with C. neoformans 1841 [2] (0.25 µmol/L) is 0.4 ± 0.0 x 10^4 CFU/mL; in the data set on C. neoformans 1841 [2] (2.5 µmol/L), 0.0 ± 0.0 x 10^4 CFU/mL; with C. neoformans 1841 [2] (25 µmol/L), 0.0 ± 0.0 x 10^4 CFU/mL. The “cell count C. neoformans 1841, 48 h” value with C. neoformans 1841 [2] (0.25 µmol/L) is 2.2 ± 0.3 x 10^4 CFU/mL; in the data set with C. neoformans 1841 [2] (2.5 µmol/L) it was 0.0 ± 0.0 x 10^4 CFU/mL; in the data set with C. neoformans 1841 [2] (25 µmol/L) it was 0.0 ± 0.0 x 10^4 CFU/mL. The “cell count C. neoformans H99, 24 h” value with C. neoformans H99 (0.25 µmol/L) was 2.7 ± 0.4 x 10^4 CFU/mL; in the data set with C. neoformans H99 (2.5 µmol/L), 0.0 ± 0.0 x 10^4 CFU/mL; with C. neoformans H99 (25 µmol/L), 0.0 ± 0.0 x 10^4 CFU/mL. Besides, the figures for the “cell count C. neoformans H99, 48 h” value with C. neoformans H99 (0.25 µmol/L), in the data set on C. neoformans H99 (2.5 µmol/L) and with C. neoformans H99 (25 µmol/L) were 2.9 ± 0.4 x 10^4 CFU/mL, 0.1 ± 0.0 x 10^4 CFU/mL and 0.0 ± 0.0 x 10^4 CFU/mL, respectively. Further, the “cell count C. neoformans KN99α, 24 h” value was 2.0 ± 1.2 x 10^4 CFU/mL in the data set with C. neoformans KN99α (0.25 µmol/L), 0.1 ± 0.1 x 10^4 CFU/mL with C. neoformans KN99α (2.5 µmol/L) and 0.8 ± 1.3 x 10^4 CFU/mL with C. neoformans KN99α (25 µmol/L). For the same molecule, the “cell count C. neoformans KN99α, 48 h” value in the data set on C. neoformans KN99α (0.25 µmol/L) is 2.2 ± 1.1 x 10^4 CFU/mL; with C. neoformans KN99α (2.5 µmol/L), 0.1 ± 0.1 x 10^4 CFU/mL; in the data set with C. neoformans KN99α (25 µmol/L), 0.8 ± 1.3 x 10^4 CFU/mL. Besides, the “incubation time after which no viable cells were detected” value with C. neoformans 1841 [3] is given as 45 min. For the same molecule, the “suppression of fungi, colonies after 48 h” value in data set [4] is given as “completely suppressed the fungi”. In addition, the “peptide concentration used in cytotoxicity test relative to MIC (safety margin)” value in data set [5] was found to be 150 fold. Also, the “MIC (μmol/L) 1841 24 h” value in [6] (1841 (serotype D, 24 h, pH 7.5)) worked out at 1.6 µmol/L (≈ 3.98 µg/mL). In addition, the “MIC (μmol/L) 1841 48 h” value in data set [6] (1841 (serotype D, 48 h, pH 7.5)) came out at 1.6 µmol/L (≈ 3.98 µg/mL). Besides, the “MIC (μmol/L) H99 24 h” value in data set [7] (H99 (serotype A, 24 h)) amounted to 1.6 µmol/L (≈ 3.98 µg/mL). Also, the “MIC (μmol/L) H99 48 h” value in data set [7] (H99 (serotype A, 48 h)) was determined as 1.6 µmol/L (≈ 3.98 µg/mL). Besides, the “MIC (μmol/L) KN99α 24 h” value in data set [8] (KN99α (serotype A, mating type MATα, 24 h)) stood at 1.6 µmol/L (≈ 3.98 µg/mL). In addition, the “MIC (μmol/L) KN99α 48 h” value in [8] (KN99α (serotype A, mating type MATα, 48 h)) was 1.6 µmol/L (≈ 3.98 µg/mL).
